From ChEMBL document CHEMBL1151010, “A case study of combinatorial libraries: Endothelin receptor antagonist hexapeptides” (Bioorg Med Chem Lett, 1995) come the findings set out here.

One assay concerns the target T1, Endothelin-1 receptor (Sus scrofa, UniProt Q29010).
T1 sequence (Q29010 whole entry): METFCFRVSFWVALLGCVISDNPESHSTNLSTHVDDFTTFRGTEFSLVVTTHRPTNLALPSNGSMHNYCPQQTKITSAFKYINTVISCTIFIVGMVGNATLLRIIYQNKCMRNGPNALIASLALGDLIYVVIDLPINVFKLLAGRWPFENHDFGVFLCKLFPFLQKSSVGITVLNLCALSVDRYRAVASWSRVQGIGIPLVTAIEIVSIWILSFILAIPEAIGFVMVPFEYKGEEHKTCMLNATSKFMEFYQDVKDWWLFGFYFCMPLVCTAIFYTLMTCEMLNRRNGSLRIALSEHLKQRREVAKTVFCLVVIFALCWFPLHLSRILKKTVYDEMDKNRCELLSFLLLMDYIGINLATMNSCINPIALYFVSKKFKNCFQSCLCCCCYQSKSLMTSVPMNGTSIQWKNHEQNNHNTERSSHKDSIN
The experiment in a line: (§1) Inhibition of endothelin (ET-A) binding to porcine heart membranes. Further details: species or system Membrane.

For assay [1], the target named is T2, Endothelin-1 receptor (Sus scrofa) (UniProt Q29010).
T2 sequence (whole entry): T1 sequence (Q29010 whole entry)
The assay is described as §1. Further details: concentration or dose not given beside the values. Particulars: Membrane, concentration not given here.

For assay [2], the target named is T2, Endothelin-1 receptor (Sus scrofa). Description: Antagonist activity against ET-A from porcine heart membranes. Format: functional, tissue-based. As to conditions: concentration not given here.
Assay [3] shares this target. The description is as §1. Further details: concentration or dose not given beside the values. As to conditions: Membrane, concentration not given here. This is another data set of the same source.

Each structure is given as a SMILES string.

For the compound `CC[C@H](C)[C@H](NC(=O)CNC(=O)[C@H](CCC(N)=O)NC(=O)[C@H](CC(C)C)NC(=O)[C@H](NC(C)=O)C1c2ccccc2CCc2ccccc21)C(=O)N[C@@H](Cc1c[nH]c2ccccc12)C(=O)O`, the IC50 (as a rule, the concentration at which inhibition is half-maximal) at Endothelin-1 receptor was determined as 180 nM. Moreover, the inhibition (usually the percentage by which the read-out fell short of the control) in assay [1] amounted to 66%.

With `CC[C@H](C)[C@H](NC(=O)[C@@H](NC(=O)[C@H](CC(=O)O)NC(=O)[C@H](CC(C)C)NC(=O)[C@H](NC(C)=O)C1c2ccccc2CCc2ccccc21)C1CCCCC1)C(=O)N[C@@H](Cc1c[nH]c2ccccc12)C(=O)O`, the inhibition in assay [2] is 47%.

`CC[C@H](C)[C@H](NC(=O)[C@H](CC(N)=O)NC(=O)[C@H](CC(=O)O)NC(=O)[C@H](CC(C)C)NC(=O)[C@H](NC(C)=O)C1c2ccccc2CCc2ccccc21)C(=O)N[C@@H](Cc1c[nH]c2ccccc12)C(=O)O` had an inhibition in assay [3] of 41%. The compound further displayed an IC50 on Endothelin-1 receptor of 40 nM.

On to `CC[C@H](C)[C@H](NC(=O)CNC(=O)[C@H](CC(=O)O)NC(=O)[C@H](CC(C)C)NC(=O)[C@H](NC(C)=O)C1c2ccccc2CCc2ccccc21)C(=O)N[C@@H](Cc1c[nH]c2ccccc12)C(=O)O`, for which the values for the inhibition in assay [3] and in assay [1] were 41% and 93%, respectively. The compound also registered an IC50 on Endothelin-1 receptor of 18 nM.

In the case of `CC[C@H](C)[C@H](NC(=O)CNC(=O)[C@H](CC(N)=O)NC(=O)[C@H](CC(C)C)NC(=O)[C@H](NC(C)=O)C1c2ccccc2CCc2ccccc21)C(=O)N[C@@H](Cc1c[nH]c2ccccc12)C(=O)O`, on Endothelin-1 receptor, the IC50 turned out to be 120 nM. Also, in assay [1], the inhibition was determined as 74%.

`CC[C@H](C)[C@H](NC(=O)CNC(=O)CNC(=O)[C@H](CC(C)C)NC(=O)[C@H](NC(C)=O)C1c2ccccc2CCc2ccccc21)C(=O)N[C@@H](Cc1c[nH]c2ccccc12)C(=O)O`: the IC50 on Endothelin-1 receptor worked out at 150 nM. The same compound showed an inhibition in assay [1] of 41%.

`CC[C@H](C)[C@H](NC(=O)[C@H](C)NC(=O)[C@H](CC(=O)O)NC(=O)[C@H](CC(C)C)NC(=O)[C@H](NC(C)=O)C1c2ccccc2CCc2ccccc21)C(=O)N[C@@H](Cc1c[nH]c2ccccc12)C(=O)O` yielded an inhibition in assay [3] of 47%. The same compound yielded an IC50 on Endothelin-1 receptor of 30 nM.

Regarding `CC[C@H](C)[C@H](NC(=O)[C@@H](NC(=O)[C@H](CC(=O)O)NC(=O)[C@H](CC(C)C)NC(=O)[C@H](NC(C)=O)C1c2ccccc2CCc2ccccc21)C(C)C)C(=O)N[C@@H](Cc1c[nH]c2ccccc12)C(=O)O`, in assay [3], the inhibition was 70%. This compound also displayed an IC50 at Endothelin-1 receptor of 5 nM.

`CC[C@H](C)[C@H](NC(=O)CNC(=O)[C@H](CCC(=O)O)NC(=O)[C@H](CC(C)C)NC(=O)[C@H](NC(C)=O)C1c2ccccc2CCc2ccccc21)C(=O)N[C@@H](Cc1c[nH]c2ccccc12)C(=O)O` gave an IC50 on Endothelin-1 receptor of 48 nM. This compound registered an inhibition in assay [1] of 88%.

In turn, `CC[C@H](C)[C@H](NC(=O)[C@@H](NC(=O)[C@H](CC(=O)O)NC(=O)[C@H](CCC(N)=O)NC(=O)[C@H](NC(C)=O)C1c2ccccc2CCc2ccccc21)C1CCCCC1)C(=O)N[C@@H](Cc1c[nH]c2ccccc12)C(=O)O` had an inhibition in assay [2] of 49%.
